Reference: EP1976513B1 (priority 2006, dated 2007)
Like-named read-outs stand apart in the source and are kept apart here.

Tests used:
[1] = molecular target: T1, human dopamine reuptake transporter (Homo sapiens, UniProt Q01959); experiment: cell-based
T1 construct: expressed in transfected cells; host or cells: CHO-K1 or HEK293

[2] = molecular target: human serotonin reuptake transporter (Homo sapiens, UniProt P31645); experiment: cell-based
[3] = recombinant human dopamine transporter (DAT), read-out: Human IC50 (nM) hDAT
[4] = recombinant human serotonin transporter (SERT), read-out: Human IC50 (nM) hSERT

Chain of human serotonin reuptake transporter (P31645 whole entry): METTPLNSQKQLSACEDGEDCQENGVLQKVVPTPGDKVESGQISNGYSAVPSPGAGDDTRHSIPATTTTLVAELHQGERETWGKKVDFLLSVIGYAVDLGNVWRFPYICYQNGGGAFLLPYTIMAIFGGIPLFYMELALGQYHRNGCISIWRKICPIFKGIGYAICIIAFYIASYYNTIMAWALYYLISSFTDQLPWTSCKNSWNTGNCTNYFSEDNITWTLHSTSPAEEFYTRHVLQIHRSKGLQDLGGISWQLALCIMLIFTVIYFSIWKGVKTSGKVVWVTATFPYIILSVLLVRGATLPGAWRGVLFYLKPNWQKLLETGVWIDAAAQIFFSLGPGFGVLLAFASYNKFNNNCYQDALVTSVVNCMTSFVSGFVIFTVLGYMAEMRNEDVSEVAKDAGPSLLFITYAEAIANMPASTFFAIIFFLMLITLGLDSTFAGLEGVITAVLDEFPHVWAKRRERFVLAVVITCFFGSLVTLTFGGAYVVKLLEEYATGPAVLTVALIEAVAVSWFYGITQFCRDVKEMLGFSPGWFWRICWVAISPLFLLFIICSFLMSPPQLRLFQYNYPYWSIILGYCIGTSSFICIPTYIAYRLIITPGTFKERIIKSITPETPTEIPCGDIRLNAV
T1 sequence (Q01959 whole entry): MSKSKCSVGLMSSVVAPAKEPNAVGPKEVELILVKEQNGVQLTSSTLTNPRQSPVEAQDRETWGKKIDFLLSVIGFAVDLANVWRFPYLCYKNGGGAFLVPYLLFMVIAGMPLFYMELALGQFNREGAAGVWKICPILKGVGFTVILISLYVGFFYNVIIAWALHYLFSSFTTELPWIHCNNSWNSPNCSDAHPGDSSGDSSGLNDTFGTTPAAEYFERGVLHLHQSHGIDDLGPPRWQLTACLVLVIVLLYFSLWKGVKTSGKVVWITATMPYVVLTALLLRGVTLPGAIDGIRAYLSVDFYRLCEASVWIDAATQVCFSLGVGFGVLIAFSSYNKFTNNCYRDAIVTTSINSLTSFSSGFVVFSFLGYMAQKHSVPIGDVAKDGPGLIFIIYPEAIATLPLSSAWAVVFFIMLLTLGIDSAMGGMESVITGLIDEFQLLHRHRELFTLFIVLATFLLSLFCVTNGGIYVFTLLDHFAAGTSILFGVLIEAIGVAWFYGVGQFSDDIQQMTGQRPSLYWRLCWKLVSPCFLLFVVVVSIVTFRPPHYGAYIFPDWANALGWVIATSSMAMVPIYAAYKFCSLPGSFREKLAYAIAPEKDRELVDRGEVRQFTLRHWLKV

Compound | IC50 [1, 3] [nM] | IC50 [2, 4] [nM] | other results
NC[C@]1(c2ccc(Cl)c(Cl)c2)CC[C@H](O)CC1 [Compound 299, (1s,4s)-4-(aminomethyl)-4-(3,4-dichlorophenyl)cyclohexanol] | 720 |  | 
NCC1(c2ccc(Cl)c(Cl)c2)CCC(F)CC1 (stereo not shown) [Compound 253, (1-(3,4-dichlorophenyl)-4-fluorocyclohexyl)methanamine] | 37 |  | 
CCC1(O)CCC(CN)(c2ccc(Cl)c(Cl)c2)CC1 (stereo not shown) [Compound 278, 4-(aminomethyl)-4-(3,4-dichlorophenyl)-1-ethylcyclohexanol] | 3190 | 5140 | 
CNCC1(c2ccc(OC(F)(F)F)cc2)CCCCC1O (single isomer, unassigned) [146 E1, trans-2-((Methylamino)methyl)-2-(4-(trifluoromethoxy)phenyl) cyclohexanol] | > 10000 |  | 
CNCC1(c2ccc(Cl)c(Cl)c2)CCCC(F)(F)C1 (single isomer, unassigned) [205 E1, 1-(1-(3,4-dichlorophenyl)-3,3-difluorocyclohexyl)-N-methylmethanamine] |  |  | IC50 ([2]; Human IC50 (nM) hSERT): 4210 nM
COc1ccc(C2(CN(C)C)CCCCC2O)cc1 (single isomer, unassigned) [155 E1, Cis-2-((dimethylamino)methyl)-2-(4-methoxyphenyl)cyclohexanol] | > 10000 |  | 
CNC(C)C1(c2cccc3ccccc23)CCCCC1 (single isomer, unassigned) [59 E2, N-methyl-1-(1-(naphthalen-1-yl)cyclohexyl)ethanamine] | 3870 |  | 
CNCC1(c2ccc(Cl)cc2)CCCCC1O (single isomer, unassigned) [136 E1, trans-2-(4-chlorophenyl)-2-((methylamino)methyl)-cyclohexanol] |  | > 10000 | 
NCC1(c2ccc(Cl)c(Cl)c2)CCCC(O)C1 (single isomer, unassigned) [185 E2, Trans-3-(aminomethyl)-3-(3,4-dichlorophenyl)cyclohexanol] |  | > 10000 | 
CCC(NC)C1(c2ccc(Cl)c(Cl)c2)CCCCC1 (single isomer, unassigned) [62 E2, 1-(1-(3,4-dichlorophenyl)cyclohexyl)-N-methylpropan-1-amine] | 4 |  | 
NCC1(c2ccc(Cl)c(Cl)c2)CCCC(O)C1 (single isomer, unassigned) [185 E1, Trans-3-(aminomethyl)-3-(3,4-dichlorophenyl)cyclohexanol] |  | > 10000 | 
CN(C)CC1(c2ccc(OC(F)(F)F)cc2)CCC(O)CC1 (stereo not shown) [Compound 250, 4-((dimethylamino)methyl)-4-(4-(trifluoromethoxy)phenyl)cyclohexanol] |  | 47 | 
CNCC1(c2ccc(Cl)cc2)CCCCC1O (single isomer, unassigned) [136 E2, trans-2-(4-chlorophenyl)-2-((methylamino)methyl)-cyclohexanol] |  | > 10000 | 
CN(C)CC1(c2ccc(Cl)c(Cl)c2)CCCC(F)(F)C1 (single isomer, unassigned) [206 E1, 1-(1-(3,4-dichlorophenyl)-3,3-difluorocyclohexyl)-N,N-dimethylmethanamine] | 59 |  | 
CC(C)CC(N)C1(c2ccc(Cl)cc2)CCCCC1 (single isomer, unassigned) [21 E2, 1-(1-(4-chlorophenyl)cyclohexyl)-3-methylbutan-1-amine] |  |  | IC50 ([2]; Human IC50 (nM) hSERT): 1240 nM
CC(N)C1(c2ccc(-c3ccco3)cc2)CCCCC1 (single isomer, unassigned) [22 E1, 1-(1-(4-(furan-2-yl)phenyl)cyclohexyl)ethanamine] |  | 63 | 
NCC1(c2ccc(Cl)c(Cl)c2)CCC(F)CC1 (stereo not shown) [Compound 260, (1-(3,4-dichlorophenyl)-4-fluorocyclohexyl)methanamine] | 306 |  | 
CNCC1(c2ccc3ccccc3c2)CCC(F)CC1 (stereo not shown) [Compound 236, 1-(4-fluoro-1-(naphthalen-2-yl)cyclohexyl)-N-methylmethanamine] | 444 |  | 
CNCC1(c2ccc3ccccc3c2)CCC(F)CC1 (stereo not shown) [Compound 232, 1-(4-fluoro-1-(naphthalen-2-yl)cyclohexyl)-N-methylmethanamine] | 25 |  | 
CNCC1(c2ccc(Cl)c(Cl)c2)CCCC(F)(F)C1 (single isomer, unassigned) [205 E2, 1-(1-(3,4-dichlorophenyl)-3,3-difluorocyclohexyl)-N-methylmethanamine] |  |  | IC50 ([2]; Human IC50 (nM) hSERT): 1710 nM
CN(C)CC1(c2ccc(Cl)c(Cl)c2)CCCC(F)(F)C1 (single isomer, unassigned) [206 E2, 1-(1-(3,4-dichlorophenyl)-3,3-difluorocyclohexyl)-N,N-dimethylmethanamine] | < 1 |  | 
CNCC1(c2ccc(OC)cc2)CCCCC1O (single isomer, unassigned) [140 E2, trans-2-(4-Methoxyphenyl)-2-((methylamino)methyl)cyclohexanol] |  | > 10000 | 
CC(N)C1(c2ccc(-c3ccco3)cc2)CCCCC1 (single isomer, unassigned) [22 E2, 1-(1-(4-(furan-2-yl)phenyl)cyclohexyl)ethanamine] |  | 101 | 
NCC1(c2ccc(Cl)c(Cl)c2)CC=CCC1 (stereo not shown) [Compound 71] |  |  | IC50 ([1]; Human IC50 (nM) hDAT): 123 nM

Compound | IC50 [1, 3] [nM] | IC50 [2, 4] [nM] | other results
CC(C)CC(N)C1(c2ccc(Cl)cc2)CCCCC1 (stereo not shown) [Compound 21, 1-(1-(4-chlorophenyl)cyclohexyl)-3-methylbutan-1-amine] |  |  | IC50 ([2]; Human IC50 (nM) hSERT): 2100 nM
CNCC1(c2ccc3ccccc3c2)CCC(O)CC1 (stereo not shown) [Compound 227, 4-((methylamino)methyl)-4-(naphthalen-2-yl)cyclohexanol] | 5780 |  | 
COc1ccc(C2(CN(C)C)CCCCC2O)cc1 (single isomer, unassigned) [155 E2, Cis-2-((dimethylamino)methyl)-2-(4-methoxyphenyl)cyclohexanol] | > 10000 |  | 
CC1(O)CCC(CN)(c2ccc(Cl)c(Cl)c2)CC1 (stereo not shown) [Compound 272, 4-(aminomethyl)-4-(3,4-dichlorophenyl)-1-methylcyclohexanol] |  | > 10000 | 
CNCC1(c2ccc(OC(F)(F)F)cc2)CCC(C)(O)CC1 (stereo not shown) [Compound 247, 1-methyl-4-((methylamino)methyl)-4-(4-(trifluoromethoxy)phenyl)cyclohexanol] |  | 707 | 
CC(N)C1(c2ccc(OC(F)(F)F)cc2)CCCCC1 (single isomer, unassigned) [19 E2, 1-(1-(4-(trifluoromethoxy)phenyl)cyclohexyl)ethanamine] |  | 398 | 
CC1(O)CCC(CN)(c2ccc(Cl)c(Cl)c2)CC1 (stereo not shown) [Compound 275, 4-(aminomethyl)-4-(3,4-dichlorophenyl)-1-methylcyclohexanol] |  | 1190 | 
CCC1(O)CCC(CNC)(c2ccc(Cl)c(Cl)c2)CC1 (stereo not shown) [Compound 282, 4-(3,4-dichlorophenyl)-1-ethyl-4-((methylamino)methyl)cyclohexanol] | 186 |  | 
NCC1(c2ccc(Cl)c(Cl)c2)CCCC(O)C1 (single isomer, unassigned) [184 E2, Cis-3-(aminomethyl)-3-(3,4-dichlorophenyl)cyclohexanol] |  | > 10000 | 
CNC(C)C1(c2cccc3ccccc23)CCCCC1 (single isomer, unassigned) [59 E1, N-methyl-1-(1-(naphthalen-1-yl)cyclohexyl)ethanamine] | 1750 |  | 
CC(C)CC(N)C1(c2ccc(Cl)cc2)CCCCC1 (single isomer, unassigned) [21 E1, 1-(1-(4-chlorophenyl)cyclohexyl)-3-methylbutan-1-amine] |  |  | IC50 ([2]; Human IC50 (nM) hSERT): 9660 nM
CNCC1(c2cccc(C(F)(F)F)c2)CCCCC1 [Compound 104, N-methyl-1-(1-(3-(trifluoromethyl)phenyl)-cyclohexyl)methanamine] |  |  | IC50 ([2]; Human IC50 (nM) hSERT, recombinant human serotonin transporter (SERT)): 9490 nM
CCNCC1(c2ccc(Cl)c(Cl)c2)CCCCC1CO (single isomer, unassigned) [169 E2, (2-(3,4-dichlorophenyl)-2-((ethylamino)methyl)-cyclohexyl)methanol] |  | 332 | 
CCC(NC)C1(c2ccc(Cl)c(Cl)c2)CCCCC1 (single isomer, unassigned) [62 E1, 1-(1-(3,4-dichlorophenyl)cyclohexyl)-N-methylpropan-1-amine] | 39 |  | 
CC(N)C1(c2ccc(OC(F)(F)F)cc2)CCCCC1 (stereo not shown) [Compound 19, 1-(1-(4-(trifluoromethoxy)phenyl)cyclohexyl)ethanamine] |  | 107 | 
CC(N)C1(c2ccc(-c3ccco3)cc2)CCCCC1 (stereo not shown) [Compound 22, 1-(1-(4-(furan-2-yl)phenyl)cyclohexyl)ethanamine] |  | 296 | 
CCNCC1(c2ccc(Cl)c(Cl)c2)CCCCC1CO (single isomer, unassigned) [169 E1, (2-(3,4-dichlorophenyl)-2-((ethylamino)methyl)-cyclohexyl)methanol] |  | 1100 | 
CN(C)C[C@]1(c2ccc(Cl)c(Cl)c2)CCC[C@H](O)C1 (relative stereo) [Compound 203, cis-3-(3,4-dichlorophenyl)-3-((dimethylamino)methyl)cyclohexanol] | 1.4 |  | 
CNCC1(c2ccc(Cl)c(Cl)c2)CCC(F)(F)CC1 [Compound 268, 1-(1-(3,4-dichlorophenyl)-4,4-difluorocyclohexyl)-N-methylmethanamine] |  | 704 | 
NCC1(c2ccc(F)c(Cl)c2)CCCCC1 [Compound 32, (1-(3-chloro-4-fluorophenyl)cyclohexyl)-methanamine] | 424 |  | 
CCC1(O)CCC(CNC)(c2ccc(Cl)c(Cl)c2)CC1 (stereo not shown) [Compound 279, 4-(3,4-dichlorophenyl)-1-ethyl-4-((methylamino)methyl)cyclohexanol] | 1450 |  | 
NCC1(c2ccc(Cl)c(Cl)c2)CCCC(O)C1 (single isomer, unassigned) [184 E1, Cis-3-(aminomethyl)-3-(3,4-dichlorophenyl)cyclohexanol] |  | > 10000 | 
CNCC1(c2ccc(OC(F)(F)F)cc2)CCCCC1O (single isomer, unassigned) [146 E2, trans-2-((Methylamino)methyl)-2-(4-(trifluoromethoxy)phenyl) cyclohexanol] | > 10000 |  | 
CC(N)C1(c2ccc(OC(F)(F)F)cc2)CCCCC1 (single isomer, unassigned) [19 E1, 1-(1-(4-(trifluoromethoxy)phenyl)cyclohexyl)ethanamine] |  | 1510 | 
